Laboratory results reported in patent US6514991B2, “Phenyl-oxo-tetrahydroquinolin-3-yl beta-3 adrenergic receptor agonists” (Wyeth, priority 2000, dated 2003).
pEC50: −log10 of the molar value.

Biological target: T1, β3-AR (Homo sapiens, UniProt P13945)
T1 construct: Full-length β3-AR clones (402 amino acids) containing the last 6 amino acids of hβ3-AR are prepared; expressed in transfected cells; host or cells: CHO cells
Assay: cAMP accumulation (SPA) in CHO cells transfected with β3-AR
Assay type: cell-based
Conditions: for pEC50: CHO cells transfected with human β3-AR, cAMP, 30 min incubation, 10^-9 to 10^-5 M; for IA(β3): maximal response relative to maximal response of isoproterenol at 10^-5 M
Method: The ability of the compounds of this invention to treat or inhibit disorders related to insulin resistance or hyperglycemia was confirmed with representative compounds of this invention in the following standard pharmacological test procedures, which measured the binding selectivity of the β1-, β2-, and β3-AR. Binding to the receptors was measured in Chinese Hamster ovary (CHO) cells that were transfected with β1-, β2-, and β3-AR's. The following briefly summarizes the procedures used and results obtained.
cDNA was constructed by ligating four polymerase chain reaction (PCR) products using the following primers: an ATG-Narl fragment, sense primer 5′-[…]3′ and anti-sense primer 5′ […]3′; a Narl-Accl fragment, 5′[…]3′ as sense and 5′[…]3′ as anti-sense primer; an Accli-Styl fragment, sense primer 5° […]3′ and anti-sense primer 5′[…]3′ and a Styl-TAG fragment, with sense primer 5° […]3′ and anti-sense primer 5° […]3′. The corresponding primer sequences are described in Mantzoros, C. S., et.al., Diabetes, 1996, 45, 909-914. The four fragments are ligated into a pUC 18 plasmid (Gibco-BRL) and sequenced. Full-length β3-AR clones (402 amino acids) containing the last 6 amino acids of hβ3-AR are prepared with the β3-βARpcDNA3 from ATTC.
Clones expressing receptor levels of 70 to 110 fmoles/mg protein were used in the test procedures. CHO cells were grown in 24-well tissue culture plates in Dulbecco's Modified Eagle Media with 10% fetal bovine serum, MEM non-essential amino acids, Penicillin-Streptomycin and Geneticin. On the day of test procedure, growth medium was replaced with preincubation media (Dulbecco's Modified Eagle Media) and incubated for 30 minutes at 37° C. Pre-incubation medium was replaced with 0.2 ml treatment medium containing DMEM media containing 250 μM IBMX (isobutyl-1-methylxantine) plus 1 mM ascorbic acid with test compound dissolved in DMSO. Test compounds were assayed over a concentration range of 10^−9 M to 10^−5M for β3-AR transfected cells and 10^−8 to 10^−4 M for […] transfected cells. Isoproterenol (10^−5 M) was used as an internal standard for comparison of activity. Cells were incubated at 37° C. on a rocker for 30 min with the β3-AR transfected cells and 15 min with β1-AR and β2-AR transfected cells. Incubation was stopped by the addition of 0.2N HCl and the acid was neutralized with 2.5N NaOH. The plates, containing the cells and neutralized media, were stored at −20° C. until ready to test for cAMP using the SPA test kit (Amersham).
Data collected from the SPA test procedure were analyzed as percent of the maximal isoproterenol response at 10^−5 M. Activity curves were plotted using the SAS statistical and graphics software.

T1 sequence (P13945 whole entry): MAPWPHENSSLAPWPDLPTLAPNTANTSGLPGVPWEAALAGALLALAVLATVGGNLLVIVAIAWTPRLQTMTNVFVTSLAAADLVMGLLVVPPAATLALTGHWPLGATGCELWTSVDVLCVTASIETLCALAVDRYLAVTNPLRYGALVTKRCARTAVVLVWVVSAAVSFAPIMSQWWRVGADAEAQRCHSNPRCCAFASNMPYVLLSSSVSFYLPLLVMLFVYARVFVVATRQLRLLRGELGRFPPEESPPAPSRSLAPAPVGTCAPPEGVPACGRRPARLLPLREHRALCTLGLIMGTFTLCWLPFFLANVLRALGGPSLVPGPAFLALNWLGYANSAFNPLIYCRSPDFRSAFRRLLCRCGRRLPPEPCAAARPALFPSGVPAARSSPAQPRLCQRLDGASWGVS

Row | Compound | pEC50 | IA(β3)
1 | COC(=O)CC1Cc2ccc(-c3ccc(CNC[C@H](O)c4ccc(O)c(NS(C)(=O)=O)c4)cc3)cc2NC1=O (stereo partly drawn) [Example 1, [7-(4-{[(2R)-2-Hydroxy-2-(4-hvdroxy-3-methanesulfonylamino-phenyl)-ethylamino]-methyl}-phenyl)-2-oxo-1,2,3,4-tetrahydro-quinolin-3-yl]-acetic Acid Methyl Ester] | 7.40 | 1.1
2 | CCOC(=O)CC1Cc2cc(-c3cccc(CNC[C@H](O)c4ccc(O)c(NS(C)(=O)=O)c4)c3)ccc2NC1=O (some centres unmarked) [Example 2] | 7.05 | 1.0
3 | COC(=O)CC1Cc2ccc(-c3cccc(CNC[C@H](O)c4ccc(O)c(NS(C)(=O)=O)c4)c3)cc2NC1=O (stereo partly drawn) [Example 3, [7-(3-{[(2R)-2-Hydroxy-2-(4-hydroxy-3-methanesulfonylamino-phenyl)-ethylamino]-methyl}-phenyl)-2-oxo-1,2,3,4-tetrahydro-quinolin-3-yl]-acetic acid methyl ester] | 7.22 | 1.0
4 | Ethyl [6-(4-{[(2R)-2-hydroxy-2-{4-hydroxy-3-[(methylsulfonyl)amino]-phenyl}ethyl)amino]methyl}phenyl)-2-oxo-1,2,3,4-tetrahydroquinolin-3-yl]acetate [Example 4] | 7.15 | 1.0
